Test [1] concerns the target T1, Genome polyprotein (dengue virus type 2, UniProt P29990). The class given is functional, Thailand/16681/1984.
In test [2] the target is T1, Genome polyprotein. Type of test: functional, Thailand/16681/1984. The source holds these as a separate data set.

Where “and” joins values, the source holds several entries; their conditions need not be identical. Equal entries are not always repeated.

The record followed here is ChEMBL document CHEMBL5604063, “ASAP - DENV-2 NS2B-NS3 protease fluorescence dose response” (2024).

T1 sequence (P29990 1346-1475 limits assumed): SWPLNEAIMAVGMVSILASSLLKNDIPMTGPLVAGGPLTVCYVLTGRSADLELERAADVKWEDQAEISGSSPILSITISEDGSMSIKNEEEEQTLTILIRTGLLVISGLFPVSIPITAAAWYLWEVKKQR
T1 sequence (P29990 1476-2093 limits assumed): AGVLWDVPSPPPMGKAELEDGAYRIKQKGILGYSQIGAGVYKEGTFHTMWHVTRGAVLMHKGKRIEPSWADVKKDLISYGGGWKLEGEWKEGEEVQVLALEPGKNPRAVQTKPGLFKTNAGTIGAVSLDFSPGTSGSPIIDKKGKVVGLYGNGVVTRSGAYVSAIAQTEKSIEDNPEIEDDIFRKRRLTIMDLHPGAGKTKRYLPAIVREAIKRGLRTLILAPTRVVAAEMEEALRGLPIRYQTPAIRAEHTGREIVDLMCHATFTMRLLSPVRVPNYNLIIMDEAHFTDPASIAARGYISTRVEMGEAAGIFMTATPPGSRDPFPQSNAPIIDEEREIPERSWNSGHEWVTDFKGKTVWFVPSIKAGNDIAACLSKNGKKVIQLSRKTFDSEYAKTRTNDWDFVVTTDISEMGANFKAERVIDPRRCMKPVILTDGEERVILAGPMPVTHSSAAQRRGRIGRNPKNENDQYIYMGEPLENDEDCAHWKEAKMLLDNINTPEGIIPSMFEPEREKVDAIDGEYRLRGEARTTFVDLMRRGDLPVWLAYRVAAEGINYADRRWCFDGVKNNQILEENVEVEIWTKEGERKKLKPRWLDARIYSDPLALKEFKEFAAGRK

For the molecule `CC(C)c1cc(-c2ccc3[nH]c(C(=O)O)cc3c2)cc(S(N)(=O)=O)c1`, the IC50 against Genome polyprotein [1] was over 99.5 µM; against Genome polyprotein [2] it was over 100 µM.
Regarding `CC(C)(C)OC(=O)NCc1cc(NC(=O)c2cc(Cl)cc(NC(=O)OCc3ccccc3)c2)cc(-c2nn[nH]n2)c1`, the IC50 at Genome polyprotein [1] came to 7.46 µM; against Genome polyprotein [2], 10.7 µM.
In the case of `O=C(O)c1cc2cc(-c3cccc([C@H]4CNCCO4)c3)ccc2[nH]1`, the IC50 on Genome polyprotein [1] was over 99.5 µM; on Genome polyprotein [2], over 100 µM.
For `CC(C)(C)c1cc(Br)cc(C(=O)Nc2ccc3c(c2)CNC3)c1` the same measures were over 99.5 µM and over 100 µM.
Turning to `Cc1oc2nc(-c3cc(Cl)cc(NC(=O)OCc4ccccc4)c3)ccc2c1C(=O)O`, the 50% inhibitory concentration (IC50) against Genome polyprotein [1] stood at 16.6 µM; on Genome polyprotein [2] it was 13.7 µM.
With `O=C1CCc2c(cc(Cl)cc2-c2ccc3[nH]c(C(=O)O)cc3c2)N1`, the IC50 against Genome polyprotein [1] was over 99.5 µM; at Genome polyprotein [2], over 100 µM.
For `Clc1ccc2[nH]cc(Cc3ccc4c(c3)CNC4)c2c1` the same measures were over 99.5 µM and over 100 µM.
With `O=C(O)c1nc(Cc2c[nH]c3ccc(Cl)cc23)c2ccccn12`, the half-inhibitory concentration (IC50) against Genome polyprotein [1] is over 99.5 µM; at Genome polyprotein [2], over 100 µM.
Consider `C=CC[C@H](Nc1ccc2c(c1)CNC2)c1cc(Cl)cc2[nH]ncc12`, for which the concentration for half-maximal inhibition (IC50) is 14 µM and 53.1 µM against Genome polyprotein [1]; over 100 µM against Genome polyprotein [2].
In the case of `O=C(O)c1cc2cc(-c3cc(Cl)cc4c3CCNC4=O)ccc2[nH]1`, the IC50 against Genome polyprotein [1] was over 99.5 µM; against Genome polyprotein [2], over 100 µM.
As for `O=C(O)c1cc2cc(-c3cccc([C@H]4COCCN4)c3)ccc2[nH]1`, the concentration for half-maximal inhibition (IC50) is over 99.5 µM at Genome polyprotein [1] and over 100 µM at Genome polyprotein [2].
On to `Cc1[nH]c2ccc(Cl)cc2c1Cc1ccc(-c2nnn[nH]2)cc1`, for which the IC50 was 42.6 µM at Genome polyprotein [1] and 21 µM against Genome polyprotein [2].
With `O=C(Nc1ccc2c(c1)OCO2)c1cc(Cl)cc2[nH]ncc12`, the half-maximal inhibitory concentration (IC50) was over 99.5 µM on Genome polyprotein [1] and over 100 µM on Genome polyprotein [2].
On to `Cn1ncc2c(C(=O)Nc3ccc4c(c3)CNC4)cc(Br)cc21`, for which the results for the IC50 at Genome polyprotein [1] and against Genome polyprotein [2] were over 99.5 µM and over 100 µM, respectively.
In the case of `CNC(=O)[C@H](Nc1cc(CNC(=O)OC(C)(C)C)cc(C(=O)O)c1)c1cc(Cl)cc(C2CC2)c1`, the IC50 is over 99.5 µM against Genome polyprotein [1] and over 100 µM against Genome polyprotein [2].
With `O=C(O)[C@H]1C[C@H](n2ccc(Cc3c[nH]c4ccc(Cl)cc34)n2)C1`, the half-inhibitory concentration (IC50) against Genome polyprotein [1] is over 99.5 µM; on Genome polyprotein [2] it was over 100 µM.
With `O=C(Nc1cccc([C@@H]2C[C@H]2C(=O)O)c1)c1cc(Cl)cc2[nH]ncc12`, the concentration for half-maximal inhibition (IC50) against Genome polyprotein [1] was over 99.5 µM; at Genome polyprotein [2] it was over 100 µM.
As for `C=CC[C@H](Nc1cccc(C2(C(=O)O)CCC2)c1)c1cc(Cl)cc(NC(=O)OCc2ccccc2)c1`, the figures for the half-maximal inhibitory concentration (IC50) against Genome polyprotein [1] and against Genome polyprotein [2] were 16.7 µM and 17.2 µM, respectively.
`c1ccc2c(Cc3ccc(-c4nnn[nH]4)cc3)c[nH]c2c1`: the 50% inhibitory concentration (IC50) on Genome polyprotein [1] is over 99.5 µM; against Genome polyprotein [2] it was over 100 µM.
In the same order, the values of `Nc1ccc(NC(=O)c2cc(Cl)cc3[nH]ncc23)cn1` are over 99.5 µM and over 100 µM.
In the case of `N#Cc1cc(-c2ccc3[nH]c(C(=O)O)cc3c2)cc(N2CCCC2)c1`, the IC50 was 63.4 µM on Genome polyprotein [1] and over 100 µM on Genome polyprotein [2].
With `CNc1c(-c2cc(Cl)cc(C3CC3)c2)nc2cc(C(=O)O)ccn12`, the half-maximal inhibitory concentration (IC50) on Genome polyprotein [1] is over 99.5 µM; on Genome polyprotein [2], over 100 µM.
Consider `O=C(O)c1nn(-c2ccccc2)cc1Cc1c[nH]c2ccc(Cl)cc12`, for which the results for the IC50 at Genome polyprotein [1] and against Genome polyprotein [2] were 56.5 µM and 61 µM, respectively.
As for `CNc1c(-c2cc(Cl)cc(C3CC3)c2)nc2cccc(C(=O)O)n12`, the IC50 against Genome polyprotein [1] was over 99.5 µM; at Genome polyprotein [2], over 100 µM.
In the same order, the values of `O=C(O)c1ccc(Cc2c[nH]c3ccc(Cl)cc23)cc1` are over 99.5 µM and over 100 µM.
In the same order, the values of `N#C[C@]1(Nc2cccc(-c3nn[nH]n3)c2)C(=O)Nc2ccc(Cl)cc21` are over 99.5 µM and over 100 µM.
For `COc1cc(-c2cc(Cl)cc(NC(=O)OCc3ccccc3)c2)c(OC)cc1CC(=O)O`, the IC50 was 32.8 µM against Genome polyprotein [1]; 18.4 µM and 18.3 µM against Genome polyprotein [2].
